# Experimental data from EP2818471A1, “Nitrogen bicyclic compounds as inhibitors for Scyl1 and Grk5” (Max-Planck-Gesellschaft zur Förderung der Wissenschaften …, priority 2013, dated 2014).
# System: beta-TC6 cells
# Test: Insulin HTRF assay, relative activity Ar normalized to sunitinib
# Assay type: cell-based
# Settings: Mus musculus, normalized to positive control sunitinib (5 µM = 100%), Table 10
# Source text: For further screening of compounds derived from compounds described above for their ability to regulate insulin release an insulin HTRF® (Homogeneous Time-Resolved Fluorescence; Cisbio International, France) was used. This assay is based on two antibodies against insulin binding to different epitopes of insulin. One of these antibodies is coupled to Europium (Ab-Eu-Cryptate) and the other one to the fluorophore XL665 (Ab-XL665). Is insulin secreted into the supernatant of cell culture both antibodies can bind to insulin and come therefore into close proximity which allows upon excitation that energy transfer between (FRET) the long-life fluorescent donor Europium (cryptate) and the acceptors XL665. FRET increases proportionally with insulin concentration.
# The automated assay protocol is as follows: • On day 1 15k beta-TC6 cells per well were seeded for 24 or 48 h in 50 µl complete medium. On day 2 or respective on day 3 the medium is removed and cells are washed with 60 µl 1xPBS and 20 µl induction buffer is added using BioTek washer. Subsequently, 10 µl Sunitininb (5 µM f.c.) or the test compound in induction buffer; 0.5% f.c. DMSO (CyBi-well) is transferred to the cells. The cells are then incubated at 37°C for 2, 3, 4h.
# The HTRF assay is carried out using Greiner 384-well 784075 assay plates. First 10 µl supernatant is transferred from the cell plates in HTRF plates (CyBi-well). 10 µl of 0, 1, 2, and 4 ng/ml Insulin standard controls in assay medium is used as a control. To each well 10 µl of combined 1:25 Ab-XL665 (Acc) and 1:20 Ab-Eu-Cryptate (WellMate) are added and incubated for 120 min at RT in the dark. Finally HTRF is measured on ViewLux ultra high throughput microplate imager (PerkinElmer).
# The evaluation software DataFactoty derives relative activities Ar according to the following equation: Ar = (V-R(0%control))/(R(100%control) -R(0%control)) × 100 [formula] […]
# The activity of the compounds was classified according to their Ar (relative activity) into the following ranges: Ar ≥ 100% + + + +; 50% ≤ Ar < 100% + + +; 20% ≤ Ar < 50% + +; 10% < Ar < 20% + [formula] Table 10. Ar (relative activity) values of inventive compounds
row,Structure (SMILES),Emax [%]
1,"COc1cc(-c2cn3c(-c4ccc5ncccc5c4)cnc3cn2)cc(OC)c1OC [compound 440, 6-[6-(3,4,5-trimethoxyphenyl)imidazo[1,2-a]pyrazin-3-yl]quinoline]",20 to 50
2,"FC(F)(F)c1cccc(-c2cnc3ccc(-c4ccncc4)nn23)c1 [compound 134, 6-(4-pyridyl)-3-[3-(trifluoromethyl)phenyl]imidazo[1,2-b]pyridazine]",20 to 50
3,"COc1cc(OC)cc(-c2cnc3cnc(-c4cccc(OC(C)C)c4)cn23)c1 [compound 437, 3-(3,5-dimethoxyphenyl)-6-(3-isopropoxyphenyl)imidazo[1,2-a]pyrazine]",20 to 50
4,"CN(C)CCCOc1ccc(-c2nnc3ccc(-c4ccc(Cl)cc4)cn23)cc1 [compound 237, 3-[4-[6-(4-chlorophenyl)-[1,2,4]triazolo[4,3-a]pyridin-3-yl]phenoxy]-N,N-dimethyl-propan-1-amine]",20 to 50
5,"CCOc1cccc(-c2cn3c(-c4ccc(O)c(OC)c4)cnc3cn2)c1 [compound 395, 4-[6-(3-ethoxyphenyl)imidazo[1,2-a]pyrazin-3-yl]-2-methoxy-phenol]",50 to 100
6,"COc1ccc(-c2cn3c(-c4ccc(OC)nc4)cnc3cn2)cn1 [compound 382, 3,6-bis(6-methoxy-3-pyridyl)imidazo[1,2-a]pyrazine]",20 to 50
7,"CC(=O)Nc1cccc(-c2cnc3ccc(-c4cccnc4)nn23)c1 [compound 109, N-[3-[6-(3-pyridyl)imidazo[1,2-b]pyridazin-3-yl]phenyl]acetamide]",10 to 20
8,"c1csc(-c2cn3c(-c4ccncc4)cnc3cn2)c1 [compound 314, 3-(4-pyridyl)-6-(2-thienyl)imidazo[1,2-a]pyrazine]",20 to 50
9,"CC(C)[C@@H](CO)Nc1ccc2ncc(-c3ccc(N)cc3)n2n1 [compound 5, (2S)-2-[[3-(4-aminophenyl)imidazo[1,2-b]pyridazin-6-yl]amino]-3-methyl-butan-1-ol]",50 to 100
10,"CS(=O)(=O)Nc1ccc(-c2cnc3cccnn23)cc1 [compound 96, N-(4-imidazo[1,2-b]pyridazin-3-ylphenyl)methanesulfonamide]",10 to 20
11,"O=C(NCCO)c1cccc(-c2cn3c(-c4cccs4)cnc3cn2)c1 [compound 420, N-(2-hydroxyethyl)-3-[3-(2-thienyl)imidazo[1,2-a]pyrazin-6-yl]benzamide]",20 to 50
12,"Cn1cc(-c2ccc3nnc(-c4ccc5c(c4)OCO5)n3c2)cn1 [compound 174, 3-(1,3-benzodioxol-5-yl)-6-(1-methylpyrazol-4-yl)-[1,2,4]triazolo[4,3-a]pyridine]",50 to 100
13,"COc1cc(CNc2ccc3ncc(-c4ccc(N(C)C)cc4)n3n2)cc(OC)c1OC [compound 49, 3-(4-dimethylaminophenyl)-N-[(3,4,5-trimethoxyphenyl)methyl]imidazo[1,2-b]pyridazin-6-amine]",10 to 20
14,"COc1ccc(-c2nnc3ccc(-c4cccc(N(C)C)c4)cn23)cc1OC [compound 185, 3-[3-(3,4-dimethoxyphenyl)-[1,2,4]triazolo[4,3-a]pyridin-6-yl]-N,N-dimethyl-aniline]",50 to 100
15,"COc1cc(OC)cc(-c2cn3c(-c4cccc(O)c4)cnc3cn2)c1 [compound 371, 3-[6-(3,5-dimethoxyphenyl)imidazo[1,2-a]pyrazin-3-yl]phenol]",20 to 50
16,"CC(C)N1CCN(c2ccc(-c3cn4c(-c5ccc(C(=O)NC6CC6)cc5)cnc4cn3)cc2)CC1 [compound 435, N-cyclopropyl-4-[6-[4-(4-isopropylpiperazin-1-yl)phenyl]imidazo[1,2-a]pyrazin-3-yl]benzamide]",20 to 50
17,"COc1ccc(-c2cnc3ccc(NCc4cccs4)nn23)c(OC)c1 [compound 6, 3-(2,4-dimethoxyphenyl)-N-(2-thienylmethyl)imidazo[1,2-b]pyridazin-6-amine]",20 to 50
18,"COc1ccc(-c2cnc3cnc(-c4ccc(CO)cc4)cn23)cc1 [compound 361, [4-[3-(4-methoxyphenyl)imidazo[1,2-a]pyrazin-6-yl]phenyl]methanol]",50 to 100
